Structures can show the parent of a compound that is named as a salt. Where two headings read alike, the source gives them in different places.
What was measured:
Pneumocystis carinii [1] = conditions: rat, in vivo
poly dA.dT = test: DNA binding: increase in thermal melting of poly dA.dT
Excerpt: ^a Increase in thermal melting of poly dA.dT. See, W. Wilson, et al.,

C. Parvum = test: Inihibition of C. Parvum; type: in vivo
G. lamblia = test: 50% inhibitory concentration against G. lamblia; type: cell-based
Excerpt: ^d 50% Inhibitory concentration against G. lamblia, P. carinii
topoisomerase. See, Bell, et al., supra.

Pneumocystis carinii [2] = test: In vivo Activity Against Pneumocystis carinii in Rats; conditions: saline = 100%
[3] = biological target: T1, topoisomerase II isolated from P. carinii (Pneumocystis carinii, UniProt A0A0W4ZKQ4); test: Inhibition of topoisomerase II isolated from P. carinii; type: biochemical
T1 construct: homodimer
T1 sequence (A0A0W4ZKQ4 1-1493): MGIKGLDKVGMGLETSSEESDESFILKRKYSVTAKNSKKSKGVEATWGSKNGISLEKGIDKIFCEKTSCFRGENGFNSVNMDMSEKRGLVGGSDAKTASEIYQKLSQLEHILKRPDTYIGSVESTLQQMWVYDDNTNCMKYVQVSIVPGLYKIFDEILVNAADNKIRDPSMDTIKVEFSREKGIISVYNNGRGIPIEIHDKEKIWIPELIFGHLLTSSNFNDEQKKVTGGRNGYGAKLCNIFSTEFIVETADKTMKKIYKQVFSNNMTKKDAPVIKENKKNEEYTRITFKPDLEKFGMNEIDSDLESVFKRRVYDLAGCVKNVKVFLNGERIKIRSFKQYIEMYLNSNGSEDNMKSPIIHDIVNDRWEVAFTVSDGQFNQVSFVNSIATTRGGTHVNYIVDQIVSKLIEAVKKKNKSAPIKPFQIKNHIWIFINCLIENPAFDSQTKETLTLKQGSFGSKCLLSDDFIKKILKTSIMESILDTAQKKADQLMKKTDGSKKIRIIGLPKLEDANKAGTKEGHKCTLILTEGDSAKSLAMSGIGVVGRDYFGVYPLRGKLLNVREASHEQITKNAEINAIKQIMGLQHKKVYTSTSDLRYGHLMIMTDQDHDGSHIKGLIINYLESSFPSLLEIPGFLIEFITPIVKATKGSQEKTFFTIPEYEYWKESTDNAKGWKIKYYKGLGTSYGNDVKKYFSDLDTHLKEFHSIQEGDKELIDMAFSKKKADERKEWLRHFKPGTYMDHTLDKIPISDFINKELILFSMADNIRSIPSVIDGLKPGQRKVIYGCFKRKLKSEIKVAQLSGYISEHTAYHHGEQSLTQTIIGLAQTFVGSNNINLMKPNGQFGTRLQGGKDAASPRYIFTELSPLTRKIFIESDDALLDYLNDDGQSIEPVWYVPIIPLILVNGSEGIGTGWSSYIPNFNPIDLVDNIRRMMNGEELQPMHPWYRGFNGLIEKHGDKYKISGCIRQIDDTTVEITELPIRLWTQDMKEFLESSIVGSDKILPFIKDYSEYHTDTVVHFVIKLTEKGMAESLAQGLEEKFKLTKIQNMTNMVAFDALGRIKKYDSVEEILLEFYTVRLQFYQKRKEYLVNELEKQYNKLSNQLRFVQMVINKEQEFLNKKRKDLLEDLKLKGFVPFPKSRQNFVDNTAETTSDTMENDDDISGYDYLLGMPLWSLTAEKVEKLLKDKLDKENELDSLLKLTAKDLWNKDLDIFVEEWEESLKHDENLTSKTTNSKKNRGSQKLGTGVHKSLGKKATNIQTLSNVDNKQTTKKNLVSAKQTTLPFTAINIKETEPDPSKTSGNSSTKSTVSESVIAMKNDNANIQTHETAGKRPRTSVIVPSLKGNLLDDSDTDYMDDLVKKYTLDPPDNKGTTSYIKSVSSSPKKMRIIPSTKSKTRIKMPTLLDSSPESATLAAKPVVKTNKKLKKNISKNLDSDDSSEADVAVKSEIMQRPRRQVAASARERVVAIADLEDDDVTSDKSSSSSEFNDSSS
Excerpt: ^c Inhibition of topoisomerase II isolated from P. carinii. See, C.
Dykstra, et al., J. Protozool. 38:78S (1991).

[4] = Giardia duodenalis; read-out: G. lamblia IC50

## Cl.N=C(N)c1ccc(-c2ccnc(-c3ccc(C(=N)N)cc3)n2)cc1 [Compound 1, 2,4-Bis-(4-guanylphenyl)pyrimidine hydrochloride]
Pneumocystis carinii [1]; 5 mg/kg/day
  Toxicity: 0
Pneumocystis carinii [1]; 10 mg/kg/day
  Toxicity: 1+
Poly dA.dT
  DNA binding (Increase in thermal melting of poly dA.dT): 21.5
C. Parvum; 0.1 mg/kg/day
  % efficacy: 30%
C. Parvum; 5 mg/kg/day
  % efficacy: 68%
C. Parvum; 25 mg/kg/day
  % efficacy: 50%
G. lamblia; [4]
  IC50: 2 µM
Pneumocystis carinii [2]; 5.0 mg/Kg per day
  cyst/g Lung: 2.4%
Pneumocystis carinii [2]; 10.0 mg/Kg per day
  cyst/g Lung: 0.8%

## c1cc(-c2ccc(C3=NCCN3)cc2)nc(-c2ccc(C3=NCCN3)cc2)n1 [Compound 2, 2,4Bis[(4imidazolin-2-yl)phenyl]pyrimidine hydrochloride]
Pneumocystis carinii [1]; 5 mg/kg/day
  Toxicity: 0
G. lamblia; [4]
  IC50: 3 µM
Pneumocystis carinii [2]; 5.0 mg/Kg per day
  cyst/g Lung: 2.4%

## c1cc(-c2ccc(C3=NCCCN3)cc2)nc(-c2ccc(C3=NCCCN3)cc2)n1 [Compound 3, 2,4Bis[(4tetrahydropyrimmidinyl-2-yl)phenyl]pyrimidine hydrochloride]
Poly dA.dT
  DNA binding (Increase in thermal melting of poly dA.dT): 25
G. lamblia; [4]
  IC50: 0.79 µM
Pneumocystis carinii [2]; 2.5 mg/Kg per day
  cyst/g Lung: 85.2%

## c1ccc(-c2nccc(-c3ccc(C4=NCCN4)cc3)n2)cc1 [Compound 4, 2phenyl-4-[4(imidazolin-2-yl)phenyl]pyrimidine hydrochloride]
G. lamblia; [4]
  IC50: 2 µM
Pneumocystis carinii [2]; 5.0 mg/Kg per day
  cyst/g Lung: 21.1%

## COc1cc(C(=N)NC(C)C)ccc1-c1ccnc(-c2ccc(C(=N)NC(C)C)cc2)n1 [Compound 5, 2-(4-[N-i-propylguanyl]phenyl)-4-(2-methoxy-4-[N-i-propylguanyl]phenyl)pyrimidine]
Poly dA.dT
  DNA binding (Increase in thermal melting of poly dA.dT): 13.9
G. lamblia; [4]
  IC50: 36.7 µM
[3]
  Topoisomerase P. Carinii (Inhibition of topoisomerase II isolated from P. carinii): no
Pneumocystis carinii [2]; 2.5 mg/Kg per day
  cyst/g Lung: 1.0%

## N=C(N)c1ccc(OCCCCCOc2ccc(C(=N)N)cc2)cc1 [Pentamidine, reference compound]
Poly dA.dT
  DNA binding (Increase in thermal melting of poly dA.dT): 12.8
G. lamblia; Giardia duodenalis, read-out: G. lamblia IC50
  IC50: 2.6 µM

Reference: US5622955A, “Methods of treating cryptosporidium parvum” (The University of North Carolina at Chapel Hill, priority 1995, dated 1997)
